How the values were obtained:
[1] = test system: human iPS cells differentiating to dopaminergic neurons; assay: Addition of forms of vitamin B6 or vitamin A around Day 20 of differentiation (morphology, markers, neural projections); format: cell-based; conditions: for empirically determined optimal concentration: added around Day 20 and onward, final concentration; for effect of adding vitamin B6 form on dopaminergic neurons: added starting around Day 21, retinol, retinyl acetate and vitamin C in all conditions (FIG. 16)
Protocol: In this next set of experiments, we followed Protocol A, except that around Day 20, the neural base media will be exchanged for one that contains approximately 1.2 uM retinol and 0.17 uM retinyl acetate and various other forms of vitamin B6 were then added (FIG. 1, Example 2). Resultant cells were analyzed for cell morphology, yield of TH and DAT positive cells relative to Tuj1 positivity and the number and length of neural projections as an indicator of engraftment potential.
We assessed the effects of various forms of vitamin B6 on differentiation of dopaminergic neurons from human iPS cells. […] The differentiation protocol called Protocol A (FIG. 1) was followed until Day 20. From Day 21 onward, to the basal media was added vitamin A in the form of retinol at 1.2 uM and retinyl acetate at 0.17 uM and vitamin C as ascorbic acid-2-phosphate at a final concentration of about 200 nM. It is important to note that the neural basal media that was used in all conditions contained 10 uM pyridoxal, so pyridoxal at this low concentration was present from the onset of differentiation.
In addition to the vitamins A and C which were constant throughout all conditions, various forms of vitamin B6 were added: 16 uM pyridoxine (FIG. 12A-12K), or 11 uM pyridoxal (FIG. 13A-13K), or 20 uM pyridoxal-5′-phosphate also known as PLP (FIG. 14A-14K), or all of the vitamin Bs. To assess the quality of the resultant dopaminergic neurons we examined: a) the percentage of the GIRK2 positive cells that were also positive for TH, Tyrosine hydroxylase which is an enzyme that mediates the conversion of L-tyrosine to L-3,4-dihydroxyphenylalanine, which is the rate limiting step in dopamine synthesis; this percentage should be high as an indicator of yield of the desired cell type -dopaminergic neurons; b) The percentage of TUJ positive neurons that were also TH positive; TUJ is a pleiotropic marker of neurons; only those that are TH positive are truly dopaminergic neurons; c) the percentage of the TUJ positive cells that are also positive for DAT, the dopamine transporter protein; d) the shape of the cell body should have the characteristic elongated triangular shape of neurons; and e) the length and number of neural projections associated with being TH and DAT positive. For engraftment, the length and number of neural projections is considered to be the most important factor.

[2] = test system: human iPS cells differentiated to dopaminergic neurons; assay: Immunofluorescent staining for GIRK2, TH, DAT, Tuj1 and morphology (yield and purity of dopaminergic neurons); format: cell-based; conditions: iPSCs grown in E8 plus WNT3A for 48 hours before initiating differentiation
Protocol: On Day 24, immunofluorescent staining was performed to detect the presence of molecular markers of dopaminergic neuron progenitors generated using Protocol A (FIG. 2A-FIG. 2L) or Protocol C.2 (FIG. 3A-FIG. 3L). GIRK2 (G-protein-regulated inward-rectifier potassium channel 2) is expressed in dopaminergic neurons while Tuj1 (neuron-specific class Ill B-tubulin) is a pan-neural marker. TH (tyrosine hydroxylase) is considered a gold standard in the identification of dopaminergic neurons because it is an enzyme that catalyzes the conversion of L-tyrosine to L-3,4-dihydroxyphenylalanine, which is the rate limiting step in dopamine synthesis. DAT (dopamine active transporter) is equally important as it is the transmembrane protein that pumps dopamine from the synapse back into the cytosol. Both differentiation protocols produced cells that were positive for all appropriate molecular markers. […]
In addition to the vitamins A and C which were constant throughout all conditions, various forms of vitamin B6 were added: 16 uM pyridoxine (FIG. 12A-12K), or 11 uM pyridoxal (FIG. 13A-13K), or 20 uM pyridoxal-5′-phosphate also known as PLP (FIG. 14A-14K), or all of the vitamin Bs. […] FIG. 17 is a graph of the amount of dopamine and its metabolites, measured by HPLC, present in the conditioned media from only 200,000 cells taken at Day 30, Day 40, Day 50 or Day 60. […]

Molecule | empirically determined optimal concentration [1] [µM] | effect of adding vitamin B6 form on dopaminergic neurons [1] | survival of differentiating cells [2]
Cc1ncc(CO)c(CO)c1O [pyridoxine] | 10 to 20 |  | 
Cc1ncc(COP(=O)(O)O)c(C=O)c1O [pyridoxal-5′-phosphate] | 10 to 40 | greatly increase dopamine yield and engraftment potential | 
Cc1ncc(CO)c(C=O)c1O [pyridoxal] | 5 to 20 | greatly increase dopamine yield and engraftment potential | 
WNT3A: beta-catenin agonist added to pluripotent stem cell media at 100 ng/mL for 48 hours before differentiation (protein, UniProt P56704 19-352, looked up) Protein Wnt-3a: SYPIWWSLAVGPQYSSLGSQPILCASIPGLVPKQLRFCRNYVEIMPSVAEGIKIGIQECQHQFRGRRWNCTTVHDSLAIFGPVLDKATRESAFVHAIASAGVAFAVTRSCAEGTAAICGCSSRHQGSPGKGWKWGGCSEDIEFGGMVSREFADARENRPDARSAMNRHNNEAGRQAIASHMHLKCKCHGLSGSCEVKTCWWSQPDFRAIGDFLKDKYDSASEMVVEKHRESRGWVETLRPRYTYFKVPTERDLVYYEASPNFCEPNPETGSFGTRDRTCNVSSHGIDGCDLLCCGRGHNARAERRREKCRCVFHWCCYVSCQECTRVYDVHTCK |  |  | increased survival at Day 60

— patent US12104170B2, “Methods for deriving dopaminergic neurons from pluripotent stem cells” (MINERVA BIOTECHNOLOGIES CORPORATION, priority 2020, dated 2024)
